Measurements as given in ChEMBL document CHEMBL1158280, “Specific inhibition of human immunodeficiency virus type 1 reverse transcriptase mediated by soulattrolide, a coumarin isolated from the latex of calophyllum teysmannii” (J Nat Prod, 1996).
Calls of active or inactive are those of the source. The calls are words filed in the database; no cut-off is given here.

Key:
[1] = biological target: T1, Human immunodeficiency virus type 1 reverse transcriptase (Human immunodeficiency virus 1, UniProt Q72547); experiment: Inhibition of DNA dependent DNA polymerase activity of HIV1 recombinant reverse transcriptase p66/p51
DNA polymerase beta [2] = biological target: T2, DNA polymerase beta (Homo sapiens, UniProt P06746); experiment: Inhibition of DNA polymerase beta
[3] = biological target: T1, Human immunodeficiency virus type 1 reverse transcriptase; experiment: Inhibition of RNA dependent DNA polymerase activity of HIV1 recombinant reverse transcriptase p66/p51
Escherichia coli = experiment: Inhibition of Escherichia coli RNase H at 495 uM
[4] = biological target: T3, DNA polymerase alpha catalytic subunit (Homo sapiens) (UniProt P09884); experiment: (§1) Inhibition of DNA polymerase alpha
T3 sequence (whole entry): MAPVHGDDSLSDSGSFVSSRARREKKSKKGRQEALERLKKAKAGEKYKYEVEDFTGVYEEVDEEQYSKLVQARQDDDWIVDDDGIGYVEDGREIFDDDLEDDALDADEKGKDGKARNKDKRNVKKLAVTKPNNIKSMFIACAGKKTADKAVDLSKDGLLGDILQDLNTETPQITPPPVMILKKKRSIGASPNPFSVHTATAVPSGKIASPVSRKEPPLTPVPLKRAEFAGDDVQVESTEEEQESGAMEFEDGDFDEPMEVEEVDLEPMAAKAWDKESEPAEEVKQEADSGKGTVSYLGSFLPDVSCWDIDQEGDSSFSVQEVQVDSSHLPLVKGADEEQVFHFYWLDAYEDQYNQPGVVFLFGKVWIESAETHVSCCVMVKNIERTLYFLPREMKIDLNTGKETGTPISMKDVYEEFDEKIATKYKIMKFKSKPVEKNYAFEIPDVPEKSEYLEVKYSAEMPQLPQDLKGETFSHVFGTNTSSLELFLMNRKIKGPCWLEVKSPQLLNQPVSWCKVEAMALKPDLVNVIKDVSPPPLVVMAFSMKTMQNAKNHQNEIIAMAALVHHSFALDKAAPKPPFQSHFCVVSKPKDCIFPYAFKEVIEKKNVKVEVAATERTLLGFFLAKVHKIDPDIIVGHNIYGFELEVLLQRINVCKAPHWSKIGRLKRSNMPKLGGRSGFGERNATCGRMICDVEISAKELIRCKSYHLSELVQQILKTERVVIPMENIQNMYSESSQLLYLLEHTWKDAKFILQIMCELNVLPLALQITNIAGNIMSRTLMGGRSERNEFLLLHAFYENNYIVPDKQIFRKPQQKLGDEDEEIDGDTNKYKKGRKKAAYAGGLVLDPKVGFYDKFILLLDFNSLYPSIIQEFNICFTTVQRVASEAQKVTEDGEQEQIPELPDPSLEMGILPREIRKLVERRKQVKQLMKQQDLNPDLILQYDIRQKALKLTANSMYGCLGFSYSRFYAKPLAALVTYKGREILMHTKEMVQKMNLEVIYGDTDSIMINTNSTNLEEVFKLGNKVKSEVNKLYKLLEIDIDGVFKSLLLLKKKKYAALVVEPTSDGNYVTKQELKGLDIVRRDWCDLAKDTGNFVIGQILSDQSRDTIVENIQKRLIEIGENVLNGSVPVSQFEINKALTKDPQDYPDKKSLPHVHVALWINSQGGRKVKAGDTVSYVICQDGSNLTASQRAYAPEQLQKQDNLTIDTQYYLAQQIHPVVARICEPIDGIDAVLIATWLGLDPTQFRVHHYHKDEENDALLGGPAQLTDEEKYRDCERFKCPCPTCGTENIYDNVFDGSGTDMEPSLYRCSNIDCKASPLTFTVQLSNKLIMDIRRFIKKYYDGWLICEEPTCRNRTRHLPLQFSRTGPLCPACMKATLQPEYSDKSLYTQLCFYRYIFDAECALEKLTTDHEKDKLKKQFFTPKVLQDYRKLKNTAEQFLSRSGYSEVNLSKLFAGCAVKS

[5] = biological target: Human immunodeficiency virus type 1 reverse transcriptase (Human immunodeficiency virus 1) (UniProt Q72547); experiment: Inhibition of RNA dependent DNA polymerase activity of HIV1 recombinant reverse transcriptase p66/p51 at 495 uM
[6] = system: Human immunodeficiency virus 2; experiment: Inhibition of HIV2 reverse transcriptase p68/p54 expressed in Escherichia coli at 495 uM
DNA polymerase beta [7] = biological target: T2, DNA polymerase beta; experiment: Inhibition of DNA polymerase beta at 495 uM
[8] = system: Avian myeloblastosis virus; experiment: Inhibition of Avian myeloblastosis virus reverse transcriptase at 495 uM
[9] = Inhibition of Escherichia coli RNase H
[10] = Inhibition of RNA polymerase at 495 uM
[11] = system: Human immunodeficiency virus 1; experiment: Inhibition of TIBO-resistant HIV1 reverse transcriptase p66/p51 Tyr181 mutant expressed in Escherichia coli at 495 uM
[12] = biological target: Human immunodeficiency virus type 1 reverse transcriptase (Human immunodeficiency virus 1) (UniProt Q72547); experiment: Inhibition of DNA dependent DNA polymerase activity of HIV1 recombinant reverse transcriptase p66/p51 at 495 uM
[13] = system: Human immunodeficiency virus 2; experiment: Inhibition of HIV2 reverse transcriptase p68/p54 expressed in Escherichia coli
[14] = Inhibition of RNA polymerase
[15] = system: Human immunodeficiency virus 1; experiment: Inhibition of TIBO-resistant HIV1 reverse transcriptase p66/p51 Tyr181 mutant expressed in Escherichia coli
[16] = system: Avian myeloblastosis virus; experiment: Inhibition of Avian myeloblastosis virus reverse transcriptase
[17] = biological target: T3, DNA polymerase alpha catalytic subunit (Homo sapiens); experiment: Inhibition of DNA polymerase alpha at 495 uM
[18] = biological target: T4, DNA polymerase alpha catalytic subunit (Homo sapiens, UniProt P09884); experiment: as §1
T4 sequence (P09884 whole entry): T3 sequence (whole entry)

Work on `CCCc1cc(=O)oc2c3c(c4c(c12)OC(C)(C)C=C4)O[C@H](C)[C@@H](C)[C@@H]3O` [CALANOLIDE A] yielded an IC50 [1] of 0.32 µM and an IC50 (DNA polymerase beta [2]) of 205 µM.

`CCCc1cc(=O)oc2c3c(c4c(c12)OC(C)(C)C=C4)O[C@@H](C)[C@H](C)[C@@H]3O` [COSTATOLIDE] showed an IC50 [3] of 1.4 µM and an IC50 [1] of 0.29 µM.

For `C[C@H]1[C@H](C)Oc2c3c(c4c(-c5ccccc5)cc(=O)oc4c2[C@H]1O)OC(C)(C)C=C3` [SOULATTROLIDE], the inhibition (Escherichia coli) was 86.5%, the Activity [4] was “inactive” and the IC50 [3] was 0.73 µM. For the same compound, the inhibition [5] was 96.2%, the inhibition [6] was 0.7% and the inhibition (DNA polymerase beta [7]) was 49.6%. It also gave an inhibition [8] of 20.2%, an IC50 [1] of 0.34 µM and an IC50 [9] of 69.5 µM. The inhibition [10] was 29.7%, the inhibition [11] was 31.5% and the inhibition [12] was 87.2%. The Activity [13] was “inactive”, the Activity [14] was “inactive” and the Activity [15] was “inactive”. For the same compound, the Activity [16] was “inactive”, the IC50 (DNA polymerase beta [2]) was over 495 µM and the inhibition [17] was 28.1%.

`Cc1cn([C@H]2C[C@H](N=[N+]=[N-])[C@@H](CO[P@](=O)(O)O[P@](=O)(O)OP(=O)(O)O)O2)c(=O)[nH]c1=O` [ZIDOVUDINE TRIPHOSPHATE] gave an IC50 [18] of 11 µM, an IC50 [1] of 0.051 µM and an IC50 (DNA polymerase beta [2]) of 16 µM.
